# Patent US20060281787A1, “Bisindolyl maleimides useful for treating prostate cancer and akt-mediated diseases” (priority 2003, published 2006)
# Assays:
# recombinant PDK-1 = biological target: T1, recombinant PDK-1 (Homo sapiens, UniProt O15530); assay: PDK-1 kinase activity assay (PDK-tide phosphorylation, phosphocellulose filter plates); type: biochemical; details: at Km for ATP and PDKtide saturation; read-out: inhibits PDK-1, EC50
# T1 construct: purchased UBI
# T1 sequence (O15530 1-556): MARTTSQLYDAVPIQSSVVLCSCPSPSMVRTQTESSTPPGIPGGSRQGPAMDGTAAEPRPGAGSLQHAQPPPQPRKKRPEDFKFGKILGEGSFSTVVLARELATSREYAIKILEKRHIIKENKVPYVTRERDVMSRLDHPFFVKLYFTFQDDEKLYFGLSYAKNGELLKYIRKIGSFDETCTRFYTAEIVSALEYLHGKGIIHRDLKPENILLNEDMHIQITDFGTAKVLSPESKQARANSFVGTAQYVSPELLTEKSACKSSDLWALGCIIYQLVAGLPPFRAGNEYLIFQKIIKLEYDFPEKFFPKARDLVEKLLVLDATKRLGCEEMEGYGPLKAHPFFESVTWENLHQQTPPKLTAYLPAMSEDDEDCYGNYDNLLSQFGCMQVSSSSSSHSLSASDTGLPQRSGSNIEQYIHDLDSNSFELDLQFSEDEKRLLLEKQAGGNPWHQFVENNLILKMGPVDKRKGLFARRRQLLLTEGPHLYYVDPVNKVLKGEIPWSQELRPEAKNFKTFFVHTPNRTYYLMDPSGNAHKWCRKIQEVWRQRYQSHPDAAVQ
# Method: (§1) The assay described measures the phosphorylation of the PDK1 consensus phosphorylation site PDK-tide peptide ([…]; cat # 14452, lot 23876U) by recombinant PDK-1 (UBI) at Km for ATP and PDKtide saturation using phosphocellulose membrane filter plates. Phosphorylation of the p70S6 kinase substrate by recombinant p70S6 kinase is also measured similarly.
# recombinant p70S6 kinase = recombinant p70S6 kinase (Homo sapiens, UniProt P23443); assay: p70S6 kinase activity assay; type: biochemical; details: read-out: inhibits p70S6kinase, EC50
# Method: as §1
# [1] = tested on: human cancer cell lines derived from colon; assay: Apoptosis assay (Cell Death Detection ELISA), colon; type: cell-based
# Method: Both HCT116 colon carcinoma (cat#CCL-247) and U87MG glioblastoma (cat#HTB-14) cell lines were obtained from the American Type Culture Collection (ATCC). The standard growth media differed for each cell line but all were grown in 10% heat-inactivated FBS (Invitrogen cat# 10082-147), 37° C., 5% CO2 atmosphere and in a humidified chamber. Cell passage was completed one to two times per week using 0.25% trypsin/1 mM EDTA (Invitrogen, cat# 25200-056) solution maintaining cells in log phase growth. U87MG cells were cultured in DMEM media (Invitrogen cat# 11965-092), 1 mM non-essential amino acids (NEAA), and 0.1 mM Sodium Pyruvate. HCT116 cells were grown in McCoy's 5A Modified media (Invitrogen, cat# 16600-082), 0.15% sodium bicarbonate, 0.1 mM HEPES, 25 mM D-glucose and 0.1 mM sodium Pyruvate.
# (§2) Apoptosis assays were executed using the Cell Death Detection ELISAPIUS (Roche, 1774425) assay kit strictly following the enclosed protocol.
# [2] = tested on: human cancer cell lines derived from lung; assay: Apoptosis assay (Cell Death Detection ELISA), lung; type: cell-based
# Excerpt: as §2
# [3] = tested on: human cancer cell lines derived from prostate (both androgen-dependent and independent cell lines); assay: Apoptosis assay (Cell Death Detection ELISA), prostate; type: cell-based
# Excerpt: as §2
# [4] = tested on: human cancer cell lines from non-Hodgkin's lymphoma; assay: Apoptosis assay (Cell Death Detection ELISA), non-Hodgkin's lymphoma; type: cell-based
# Excerpt: as §2
# GSK3β = assay: Phosphorylation of GSK3β (western blot, AKT pathway readout); type: cell-based; details: readout of AKT pathway activity
# Method: (§3) Protein lysates were prepared by incubation in RIPA Buffer (50 mM Tris-HCl, 150 mM NaCl, 1 mM EDTA, 1% NP40, 0.25% Sodium deoxycholate, 1 mM sodium fluoride, 1 mM sodium orthovanadate and Complete™ protease inhibitors (Roche Cat# 10019600) for one hour with rotation. The lysate was then centrifuged (10 minutes@ 10,000 rpm), supernatant harvested and protein concentrations were determined using the Bio-Rad DC Protein Assay (cat# 500-0122). Proteins were separated by SDS-PAGE using 4-20% tris-glycine gels (Invitrogen, cat# EC6028) and transferred to Hyper™-bond PVDF membrane (Amersham, cart# rpn303F). All primary antibodies were incubated overnight at 4° C. in 5% milk/1×PBS (Gibco, cat# 70011-044) solution. Horseradish peroxidase (HRP) linked secondary antibodies (Santa Cruz, cat# sc-2055, sc-2054) were incubated for a minimum of two hours prior to detection. Specific signal was determined by the Lumi-Imager™ and Lumi-Analyst software to define changes in protein expression and phosphorylation. […]
# [5] = tested on: forkhead transcription factor AFX; assay: Phosphorylation of AFX (western blot, AKT pathway readout); type: cell-based; details: readout of AKT pathway activity
# Method: as §3
# 4EBP1 = assay: Phosphorylation of 4EBP1 (western blot, AKT pathway readout); type: cell-based; details: readout of AKT pathway activity
# Method: as §3
# ribosomal protein S6 = assay: Phosphorylation of ribosomal protein S6 (western blot, AKT pathway readout); type: cell-based; details: readout of AKT pathway activity
# Method: as §3
# [6] = tested on: GSK3β ser9 phosphorylation; assay: GSK3β ser9 phosphorylation in xenograft tissues of treated mice; type: in vivo; details: human tumor xenograft-bearing mice
# Method: as §3
# Approximately 5×10^6 tumor cells are implanted subcutaneously into the flank of athymic nude mice (Harlan, Indianapolis, Ind.). […] Body weight and tumor size are monitored weekly or twice weekly.
# [7] = tested on: HCT116 colon cancer xenografts; assay: In vivo tumor inhibition, HCT116 xenografts; set-up: species or system athymic nude mice
# Excerpt: (§4) Approximately 5×10^6 tumor cells are implanted subcutaneously into the flank of athymic nude mice (Harlan, Indianapolis, Ind.). Treatment of tumors begins when the tumors reach 100 mm^3 and continues for 21 consecutive days twice per day PO. Body weight and tumor size are monitored weekly or twice weekly.
# [8] = tested on: U87MG glioblastoma xenografts; assay: In vivo tumor inhibition, U87MG xenografts; set-up: species or system athymic nude mice
# Excerpt: as §4
# [9] = tested on: xenografts from the androgen-independent prostate carcinoma cell line PC3; assay: In vivo tumor inhibition, PC3 xenografts; set-up: species or system athymic nude mice
# Excerpt: as §4
# Sequence of recombinant p70S6 kinase (P23443 whole entry): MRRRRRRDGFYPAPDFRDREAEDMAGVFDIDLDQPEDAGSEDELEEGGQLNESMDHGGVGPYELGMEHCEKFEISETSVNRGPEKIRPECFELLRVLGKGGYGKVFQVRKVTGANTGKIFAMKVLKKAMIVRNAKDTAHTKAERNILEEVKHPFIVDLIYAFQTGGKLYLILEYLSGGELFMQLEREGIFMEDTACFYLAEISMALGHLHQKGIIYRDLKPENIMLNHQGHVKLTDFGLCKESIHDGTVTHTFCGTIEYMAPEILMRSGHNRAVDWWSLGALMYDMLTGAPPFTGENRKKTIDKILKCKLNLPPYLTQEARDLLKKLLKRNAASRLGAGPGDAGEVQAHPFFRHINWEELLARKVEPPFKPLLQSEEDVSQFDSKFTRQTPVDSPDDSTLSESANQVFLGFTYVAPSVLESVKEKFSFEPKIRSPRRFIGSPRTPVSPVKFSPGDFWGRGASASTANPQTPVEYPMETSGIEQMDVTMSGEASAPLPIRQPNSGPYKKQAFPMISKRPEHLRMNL
smiles,measurement,setting,value
Cn1cc(C2=C(c3cn(C4CCNCC4)c4ccccc34)C(=O)NC2=O)c2ccccc21 [Compound 1],EC50,recombinant PDK-1,370 nM
same,EC50,recombinant p70S6 kinase,< 500 nM
same,induction of apoptosis,[1],induces apoptosis
same,induction of apoptosis,[2],induces apoptosis
same,induction of apoptosis,[3],induces apoptosis
same,induction of apoptosis,[4],induces apoptosis
same,phosphorylation of GSK3β,GSK3β,suppresses phosphorylation
same,phosphorylation of the forkhead transcription factor AFX,[5],suppresses phosphorylation
same,phosphorylation of 4EBP1,4EBP1,suppresses phosphorylation
same,phosphorylation of ribosomal protein S6,ribosomal protein S6,suppresses phosphorylation
same,GSK3β ser9 phosphorylation in xenograft tissues,[6]; including an androgen-independent prostate carcinoma cell line,suppresses GSK3β ser9 phosphorylation
same,duration of suppression of GSK3β ser9 phosphorylation post dosing,[6]; post dosing,up to 8 hours
same,anti-tumor efficacy,[7],has been demonstrated
same,anti-tumor efficacy,[8],has been demonstrated
same,anti-tumor efficacy,[9],has been demonstrated
